# Key:
# Type in all cases: functional
# Staphylococcus aureus [1] = experiment: Antimicrobial activity against Staphylococcus aureus MTCC 96 assessed as growth inhibition after 24 hr by agar streak dilution method; details: MTCC 96, 24 h
# Aspergillus fumigatus [2] = experiment: Antimicrobial activity against Aspergillus fumigatus MTCC 343 assessed as growth inhibition after 48 hr by agar streak dilution method; details: MTCC 343, 48 h
# Shigella flexneri [3] = experiment: Antimicrobial activity against Shigella flexneri MTCC1457 assessed as growth inhibition after 24 hr by agar streak dilution method; details: MTCC1457, 24 h
# Escherichia coli [4] = experiment: Antimicrobial activity against Escherichia coli MTCC 739 assessed as growth inhibition after 24 hr by agar streak dilution method; details: MTCC 739, 24 h
# Escherichia coli [5] = experiment: Antimicrobial activity against Escherichia coli MTCC 739 assessed as diameter of growth inhibition zone after 24 hr; further: test concentration or dose not given here
# Klebsiella pneumoniae [6] = experiment: Antimicrobial activity against Klebsiella pneumoniae MTCC 109 assessed as growth inhibition after 24 hr by agar streak dilution method; details: MTCC 109, 24 h
# [7] = tested on: Mycobacterium tuberculosis; experiment: Antituberculosis activity against Mycobacterium tuberculosis H37Rv assessed as growth inhibition after 12 to 28 days by L-J MIC method; details: for MIC: Mycobacterium tuberculosis, H37Rv
# Bacillus cereus [8] = experiment: Antimicrobial activity against Bacillus cereus MTCC 430 assessed as growth inhibition after 24 hr by agar streak dilution method; details: MTCC 430, 24 h
# Aspergillus fumigatus [9] = experiment: Antimicrobial activity against Aspergillus fumigatus MTCC 343 assessed as diameter of growth inhibition zone after 48 hr; further: test concentration or dose not given here
# Candida albicans [10] = experiment: Antimicrobial activity against Candida albicans MTCC 183 assessed as diameter of growth inhibition zone after 48 hr; further: test concentration or dose not given here
# Aspergillus niger [11] = experiment: Antimicrobial activity against Aspergillus niger MTCC 282 assessed as diameter of growth inhibition zone after 48 hr; further: test concentration or dose not given here
# Proteus vulgaris [12] = experiment: Antimicrobial activity against Proteus vulgaris MTCC 1771 assessed as growth inhibition after 24 hr by agar streak dilution method; details: MTCC 1771, 24 h
# Aspergillus niger [13] = experiment: Antimicrobial activity against Aspergillus niger MTCC 282 assessed as growth inhibition after 48 hr by agar streak dilution method; details: MTCC 282, 48 h
# Klebsiella pneumoniae [14] = experiment: Antimicrobial activity against Klebsiella pneumoniae MTCC 109 assessed as diameter of growth inhibition zone after 24 hr; further: test concentration or dose not given here
# Bacillus cereus [15] = experiment: Antimicrobial activity against Bacillus cereus MTCC 430 assessed as diameter of growth inhibition zone after 24 hr; further: test concentration or dose not given here
# Pseudomonas aeruginosa [16] = experiment: Antimicrobial activity against Pseudomonas aeruginosa MTCC 741 assessed as growth inhibition after 24 hr by agar streak dilution method; details: MTCC 741, 24 h
# Salmonella typhi [17] = experiment: Antimicrobial activity against Salmonella enterica subsp. enterica serovar Typhi MTCC 733 assessed as diameter of growth inhibition zone after 24 hr
# Aspergillus clavatus [18] = experiment: Antimicrobial activity against Aspergillus clavatus MTCC 1323 assessed as diameter of growth inhibition zone after 48 hr; further: test concentration or dose not given here
# Candida albicans [19] = experiment: Antimicrobial activity against Candida albicans MTCC 183 assessed as growth inhibition after 48 hr by agar streak dilution method; details: MTCC 183, 48 h
# Pseudomonas aeruginosa [20] = experiment: Antimicrobial activity against Pseudomonas aeruginosa MTCC 741 assessed as diameter of growth inhibition zone after 24 hr
# Aspergillus clavatus [21] = experiment: Antimicrobial activity against Aspergillus clavatus MTCC 1323 assessed as growth inhibition after 48 hr by agar streak dilution method; details: MTCC 1323, 48 h
# Proteus vulgaris [22] = experiment: Antimicrobial activity against Proteus vulgaris MTCC 1771 assessed as diameter of growth inhibition zone after 24 hr
# Staphylococcus aureus [23] = experiment: Antimicrobial activity against Staphylococcus aureus MTCC 96 assessed as diameter of growth inhibition zone after 24 hr; further: test concentration or dose not given here
# Salmonella typhi [24] = experiment: Antimicrobial activity against Salmonella enterica subsp. enterica serovar Typhi MTCC 733 assessed as growth inhibition after 24 hr by agar streak dilution method; details: MTCC 733, 24 h
# Shigella flexneri [25] = experiment: Antimicrobial activity against Shigella flexneri MTCC1457 assessed as diameter of growth inhibition zone after 24 hr
Structure (SMILES),MIC (Staphylococcus aureus [1]) [µg/mL],MIC (Aspergillus fumigatus [2]) [µg/mL],MIC (Shigella flexneri [3]) [µg/mL],MIC (Escherichia coli [4]) [µg/mL],diameter of the inhibition zone (DIZ) (Escherichia coli [5]) [mm],MIC (Klebsiella pneumoniae [6]) [µg/mL],growth inhibition (GI) [7] [%],MIC [7] [µg/mL],MIC (Bacillus cereus [8]) [µg/mL],diameter of the inhibition zone (DIZ) (Aspergillus fumigatus [9]) [mm],diameter of the inhibition zone (DIZ) (Candida albicans [10]) [mm],diameter of the inhibition zone (DIZ) (Aspergillus niger [11]) [mm],MIC (Proteus vulgaris [12]) [µg/mL],MIC (Aspergillus niger [13]) [µg/mL],diameter of the inhibition zone (DIZ) (Klebsiella pneumoniae [14]) [mm],diameter of the inhibition zone (DIZ) (Bacillus cereus [15]) [mm],MIC (Pseudomonas aeruginosa [16]) [µg/mL],diameter of the inhibition zone (DIZ) (Salmonella typhi [17]) [mm],diameter of the inhibition zone (DIZ) (Aspergillus clavatus [18]) [mm],MIC (Candida albicans [19]) [µg/mL],other results
COc1ccc(/C=C/C(=O)c2ccc(Nc3cc(=O)oc4ccccc34)cc2)cc1,100,100,100,50,18,100,96,250,100,16,16,20,50,50,16,13,100,14,18,100,diameter of the inhibition zone (DIZ) (Pseudomonas aeruginosa [20]): 16 mm; MIC (Aspergillus clavatus [21]): 50 µg/mL; diameter of the inhibition zone (DIZ) (Proteus vulgaris [22]): 18 mm; diameter of the inhibition zone (DIZ) (Staphylococcus aureus [23]): 15 mm; MIC (Salmonella typhi [24]): 100 µg/mL; diameter of the inhibition zone (DIZ) (Shigella flexneri [25]): 15 mm
N#Cc1c(-c2ccc(F)cc2)cc(-c2ccc(Nc3cc(=O)oc4ccccc34)cc2)nc1N,6.25,3.12,12.5,3.12,27,3.12,97,50,3.12,28,22,23,3.12,12.5,28,28,3.12,26,28,12.5,diameter of the inhibition zone (DIZ) (Pseudomonas aeruginosa [20]): 29 mm; MIC (Aspergillus clavatus [21]): 6.25 µg/mL; diameter of the inhibition zone (DIZ) (Proteus vulgaris [22]): 29 mm; diameter of the inhibition zone (DIZ) (Staphylococcus aureus [23]): 25 mm; MIC (Salmonella typhi [24]): 6.25 µg/mL; diameter of the inhibition zone (DIZ) (Shigella flexneri [25]): 24 mm
O=C(/C=C/c1ccc(O)cc1O)c1ccc(Nc2cc(=O)oc3ccccc23)cc1,50,25,100,50,19,25,95,500,100,22,16,19,25,50,21,16,25,21,20,100,diameter of the inhibition zone (DIZ) (Pseudomonas aeruginosa [20]): 19 mm; MIC (Aspergillus clavatus [21]): 25 µg/mL; diameter of the inhibition zone (DIZ) (Proteus vulgaris [22]): 20 mm; diameter of the inhibition zone (DIZ) (Staphylococcus aureus [23]): 20 mm; MIC (Salmonella typhi [24]): 25 µg/mL; diameter of the inhibition zone (DIZ) (Shigella flexneri [25]): 17 mm
N#Cc1c(-c2ccccc2)cc(-c2ccc(Nc3cc(=O)oc4ccccc34)cc2)nc1N,50,25,50,50,19,25,96,500,50,21,19,21,25,25,21,19,50,23,23,25,diameter of the inhibition zone (DIZ) (Pseudomonas aeruginosa [20]): 18 mm; MIC (Aspergillus clavatus [21]): 12.5 µg/mL; diameter of the inhibition zone (DIZ) (Proteus vulgaris [22]): 19 mm; diameter of the inhibition zone (DIZ) (Staphylococcus aureus [23]): 17 mm; MIC (Salmonella typhi [24]): 12.5 µg/mL; diameter of the inhibition zone (DIZ) (Shigella flexneri [25]): 17 mm
